Here are results for 5 compounds from article doi:10.1101/2023.03.24.534094v2 (biorxiv, 2023).

Molecules are shown by their SMILES. Where two headings read alike, the source gives them in different places.

Test in all cases: biochemical
Experiment [1] addresses DAPK3 (Homo sapiens, UniProt O43293).
The target of experiment [2] is CK1d (Homo sapiens, UniProt P48730).
In experiment [3] the target is T1, BMPR2 (Homo sapiens, UniProt Q13873).
T1 sequence (Q13873 1-1038): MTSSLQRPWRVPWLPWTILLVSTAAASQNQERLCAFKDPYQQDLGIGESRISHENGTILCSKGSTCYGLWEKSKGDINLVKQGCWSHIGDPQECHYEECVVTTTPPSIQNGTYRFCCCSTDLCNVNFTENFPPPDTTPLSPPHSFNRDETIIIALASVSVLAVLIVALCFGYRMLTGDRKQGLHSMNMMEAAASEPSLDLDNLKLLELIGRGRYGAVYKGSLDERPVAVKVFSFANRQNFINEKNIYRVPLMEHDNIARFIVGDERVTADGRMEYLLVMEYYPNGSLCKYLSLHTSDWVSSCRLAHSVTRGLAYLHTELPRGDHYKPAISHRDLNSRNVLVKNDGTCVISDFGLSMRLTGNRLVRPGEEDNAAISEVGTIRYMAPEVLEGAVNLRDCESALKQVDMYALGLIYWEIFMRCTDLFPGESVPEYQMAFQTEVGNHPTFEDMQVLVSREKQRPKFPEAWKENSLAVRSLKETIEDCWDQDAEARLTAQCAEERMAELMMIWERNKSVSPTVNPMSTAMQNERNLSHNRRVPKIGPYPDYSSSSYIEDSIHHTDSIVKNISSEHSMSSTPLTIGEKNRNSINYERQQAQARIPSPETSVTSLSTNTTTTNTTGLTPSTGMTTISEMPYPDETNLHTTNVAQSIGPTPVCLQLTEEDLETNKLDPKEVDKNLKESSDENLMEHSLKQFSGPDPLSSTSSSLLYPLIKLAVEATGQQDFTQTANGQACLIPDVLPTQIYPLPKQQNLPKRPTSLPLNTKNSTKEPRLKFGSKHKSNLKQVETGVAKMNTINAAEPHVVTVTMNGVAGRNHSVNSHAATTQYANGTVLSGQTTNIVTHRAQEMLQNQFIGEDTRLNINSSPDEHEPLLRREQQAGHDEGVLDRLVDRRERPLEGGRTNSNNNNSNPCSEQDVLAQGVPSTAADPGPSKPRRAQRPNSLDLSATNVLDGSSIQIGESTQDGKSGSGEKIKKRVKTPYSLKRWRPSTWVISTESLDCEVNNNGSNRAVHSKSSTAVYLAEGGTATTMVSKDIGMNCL

In experiment [4] the target is SLK (Homo sapiens, UniProt Q9H2G2).
In experiment [5] the target is T2, DRAK1 (Homo sapiens, UniProt Q9UEE5).
T2 sequence (Q9UEE5 1-414): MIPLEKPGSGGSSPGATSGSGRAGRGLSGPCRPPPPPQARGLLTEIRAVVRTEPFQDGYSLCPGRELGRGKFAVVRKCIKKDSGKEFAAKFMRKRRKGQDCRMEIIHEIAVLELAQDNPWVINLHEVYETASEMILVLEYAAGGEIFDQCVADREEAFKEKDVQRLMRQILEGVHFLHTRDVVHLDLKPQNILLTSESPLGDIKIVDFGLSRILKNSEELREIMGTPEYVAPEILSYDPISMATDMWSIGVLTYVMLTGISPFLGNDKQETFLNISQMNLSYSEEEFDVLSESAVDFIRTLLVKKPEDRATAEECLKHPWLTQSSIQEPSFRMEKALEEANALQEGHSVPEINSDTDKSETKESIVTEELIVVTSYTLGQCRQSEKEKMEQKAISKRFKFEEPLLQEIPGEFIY

Experiment [6] addresses EphA7 (Homo sapiens, UniProt Q15375).
Experiment [7] concerns the target DAPK1 (Homo sapiens, UniProt P53355).
Experiment [8] has as its target PAK4 (Homo sapiens, UniProt O96013).
Experiment [9] concerns the target OSR1 (Homo sapiens, UniProt O95747).
In experiment [10] the target is PCTAIRE1 (Homo sapiens, UniProt Q00536).
Experiment [11] addresses CaMK1g (Homo sapiens, UniProt Q96NX5).
Experiment [12] has as its target T3, NEK2 (Homo sapiens, UniProt P51955).
T3 sequence (P51955 1-445): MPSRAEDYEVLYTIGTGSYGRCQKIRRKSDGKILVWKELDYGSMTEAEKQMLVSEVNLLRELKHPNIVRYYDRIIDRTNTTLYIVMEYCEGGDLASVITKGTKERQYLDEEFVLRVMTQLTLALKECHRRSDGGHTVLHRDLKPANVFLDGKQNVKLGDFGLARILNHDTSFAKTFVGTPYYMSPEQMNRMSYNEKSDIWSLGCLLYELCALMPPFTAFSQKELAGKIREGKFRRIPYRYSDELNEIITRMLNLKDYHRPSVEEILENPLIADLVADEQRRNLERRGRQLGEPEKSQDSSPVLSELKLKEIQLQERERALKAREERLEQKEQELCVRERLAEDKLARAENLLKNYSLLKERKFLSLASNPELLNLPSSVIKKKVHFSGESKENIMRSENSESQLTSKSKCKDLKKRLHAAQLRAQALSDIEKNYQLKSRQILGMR

Chain of EphA7 (Q15375 whole entry): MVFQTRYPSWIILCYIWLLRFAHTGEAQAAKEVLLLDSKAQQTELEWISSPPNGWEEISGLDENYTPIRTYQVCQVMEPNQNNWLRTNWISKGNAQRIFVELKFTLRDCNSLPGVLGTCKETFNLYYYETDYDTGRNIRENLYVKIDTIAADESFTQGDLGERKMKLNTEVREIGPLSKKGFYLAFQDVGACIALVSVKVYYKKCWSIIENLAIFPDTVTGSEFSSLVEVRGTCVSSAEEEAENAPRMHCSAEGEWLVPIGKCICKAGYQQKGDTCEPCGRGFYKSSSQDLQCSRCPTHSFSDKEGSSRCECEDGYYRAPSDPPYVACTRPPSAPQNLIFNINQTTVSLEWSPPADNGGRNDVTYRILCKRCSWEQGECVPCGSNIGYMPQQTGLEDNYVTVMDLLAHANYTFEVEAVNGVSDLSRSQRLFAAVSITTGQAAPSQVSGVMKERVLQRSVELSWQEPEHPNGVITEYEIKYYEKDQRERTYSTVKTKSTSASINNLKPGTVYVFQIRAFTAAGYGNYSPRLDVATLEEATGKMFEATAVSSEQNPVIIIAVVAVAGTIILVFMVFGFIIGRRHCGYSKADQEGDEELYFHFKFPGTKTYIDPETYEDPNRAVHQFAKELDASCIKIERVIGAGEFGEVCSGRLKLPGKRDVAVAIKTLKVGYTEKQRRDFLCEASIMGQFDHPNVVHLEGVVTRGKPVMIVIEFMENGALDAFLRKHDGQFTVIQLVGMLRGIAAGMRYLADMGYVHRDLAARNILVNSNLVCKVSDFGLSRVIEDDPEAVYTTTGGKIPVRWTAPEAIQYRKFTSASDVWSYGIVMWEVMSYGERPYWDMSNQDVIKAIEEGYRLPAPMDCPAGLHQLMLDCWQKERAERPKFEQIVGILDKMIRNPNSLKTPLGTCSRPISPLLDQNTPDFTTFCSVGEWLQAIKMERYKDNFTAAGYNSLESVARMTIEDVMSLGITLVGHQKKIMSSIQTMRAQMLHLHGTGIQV
Chain of CaMK1g (Q96NX5 whole entry): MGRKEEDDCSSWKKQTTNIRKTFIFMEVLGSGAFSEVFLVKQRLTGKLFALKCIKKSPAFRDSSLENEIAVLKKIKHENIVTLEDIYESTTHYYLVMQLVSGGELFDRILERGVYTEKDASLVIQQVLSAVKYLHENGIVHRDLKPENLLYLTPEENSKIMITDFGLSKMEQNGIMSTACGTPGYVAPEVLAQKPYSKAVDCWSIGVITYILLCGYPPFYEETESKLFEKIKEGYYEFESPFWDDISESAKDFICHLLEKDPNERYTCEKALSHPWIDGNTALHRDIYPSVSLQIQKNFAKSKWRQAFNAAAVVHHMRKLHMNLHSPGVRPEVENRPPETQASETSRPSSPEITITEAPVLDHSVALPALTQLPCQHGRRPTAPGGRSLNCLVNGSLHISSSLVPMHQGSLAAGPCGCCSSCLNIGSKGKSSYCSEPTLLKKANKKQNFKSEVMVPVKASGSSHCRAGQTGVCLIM
Chain of PCTAIRE1 (Q00536 whole entry): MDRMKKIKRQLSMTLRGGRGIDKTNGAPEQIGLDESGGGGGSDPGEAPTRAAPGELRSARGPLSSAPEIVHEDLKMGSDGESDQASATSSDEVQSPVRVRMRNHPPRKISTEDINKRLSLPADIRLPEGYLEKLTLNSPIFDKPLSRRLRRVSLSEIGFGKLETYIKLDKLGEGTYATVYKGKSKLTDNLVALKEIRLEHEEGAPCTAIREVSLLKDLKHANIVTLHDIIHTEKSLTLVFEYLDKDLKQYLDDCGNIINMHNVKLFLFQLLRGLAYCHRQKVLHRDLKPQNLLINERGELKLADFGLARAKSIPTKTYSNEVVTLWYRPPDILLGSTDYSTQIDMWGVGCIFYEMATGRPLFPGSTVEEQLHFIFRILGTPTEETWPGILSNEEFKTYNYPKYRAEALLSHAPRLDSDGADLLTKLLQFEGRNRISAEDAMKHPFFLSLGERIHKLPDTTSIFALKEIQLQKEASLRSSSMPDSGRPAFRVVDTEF
Chain of DAPK3 (O43293 whole entry): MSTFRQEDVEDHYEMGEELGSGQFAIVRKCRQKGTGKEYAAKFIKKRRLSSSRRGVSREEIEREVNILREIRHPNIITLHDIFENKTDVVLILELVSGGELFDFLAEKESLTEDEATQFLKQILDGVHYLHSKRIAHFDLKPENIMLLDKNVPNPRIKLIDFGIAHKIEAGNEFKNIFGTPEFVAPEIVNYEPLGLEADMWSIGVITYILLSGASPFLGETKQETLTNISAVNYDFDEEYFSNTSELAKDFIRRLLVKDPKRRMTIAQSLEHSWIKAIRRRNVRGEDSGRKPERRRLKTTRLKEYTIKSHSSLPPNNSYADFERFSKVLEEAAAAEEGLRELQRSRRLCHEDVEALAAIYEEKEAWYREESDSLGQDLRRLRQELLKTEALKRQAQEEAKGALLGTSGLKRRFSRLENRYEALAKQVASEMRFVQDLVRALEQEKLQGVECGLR
Chain of CK1d (P48730 whole entry): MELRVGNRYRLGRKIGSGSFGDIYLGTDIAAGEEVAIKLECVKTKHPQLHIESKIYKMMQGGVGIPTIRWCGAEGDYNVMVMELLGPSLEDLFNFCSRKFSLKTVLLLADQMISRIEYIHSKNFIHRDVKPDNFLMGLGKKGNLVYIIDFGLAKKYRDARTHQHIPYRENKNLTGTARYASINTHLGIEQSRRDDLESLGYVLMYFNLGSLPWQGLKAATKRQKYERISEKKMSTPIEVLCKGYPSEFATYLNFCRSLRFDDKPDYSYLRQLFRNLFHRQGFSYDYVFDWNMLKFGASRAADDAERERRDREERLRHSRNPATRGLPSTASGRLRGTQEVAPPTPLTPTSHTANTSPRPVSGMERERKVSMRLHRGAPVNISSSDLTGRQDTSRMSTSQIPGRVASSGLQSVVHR
Chain of DAPK1 (P53355 whole entry): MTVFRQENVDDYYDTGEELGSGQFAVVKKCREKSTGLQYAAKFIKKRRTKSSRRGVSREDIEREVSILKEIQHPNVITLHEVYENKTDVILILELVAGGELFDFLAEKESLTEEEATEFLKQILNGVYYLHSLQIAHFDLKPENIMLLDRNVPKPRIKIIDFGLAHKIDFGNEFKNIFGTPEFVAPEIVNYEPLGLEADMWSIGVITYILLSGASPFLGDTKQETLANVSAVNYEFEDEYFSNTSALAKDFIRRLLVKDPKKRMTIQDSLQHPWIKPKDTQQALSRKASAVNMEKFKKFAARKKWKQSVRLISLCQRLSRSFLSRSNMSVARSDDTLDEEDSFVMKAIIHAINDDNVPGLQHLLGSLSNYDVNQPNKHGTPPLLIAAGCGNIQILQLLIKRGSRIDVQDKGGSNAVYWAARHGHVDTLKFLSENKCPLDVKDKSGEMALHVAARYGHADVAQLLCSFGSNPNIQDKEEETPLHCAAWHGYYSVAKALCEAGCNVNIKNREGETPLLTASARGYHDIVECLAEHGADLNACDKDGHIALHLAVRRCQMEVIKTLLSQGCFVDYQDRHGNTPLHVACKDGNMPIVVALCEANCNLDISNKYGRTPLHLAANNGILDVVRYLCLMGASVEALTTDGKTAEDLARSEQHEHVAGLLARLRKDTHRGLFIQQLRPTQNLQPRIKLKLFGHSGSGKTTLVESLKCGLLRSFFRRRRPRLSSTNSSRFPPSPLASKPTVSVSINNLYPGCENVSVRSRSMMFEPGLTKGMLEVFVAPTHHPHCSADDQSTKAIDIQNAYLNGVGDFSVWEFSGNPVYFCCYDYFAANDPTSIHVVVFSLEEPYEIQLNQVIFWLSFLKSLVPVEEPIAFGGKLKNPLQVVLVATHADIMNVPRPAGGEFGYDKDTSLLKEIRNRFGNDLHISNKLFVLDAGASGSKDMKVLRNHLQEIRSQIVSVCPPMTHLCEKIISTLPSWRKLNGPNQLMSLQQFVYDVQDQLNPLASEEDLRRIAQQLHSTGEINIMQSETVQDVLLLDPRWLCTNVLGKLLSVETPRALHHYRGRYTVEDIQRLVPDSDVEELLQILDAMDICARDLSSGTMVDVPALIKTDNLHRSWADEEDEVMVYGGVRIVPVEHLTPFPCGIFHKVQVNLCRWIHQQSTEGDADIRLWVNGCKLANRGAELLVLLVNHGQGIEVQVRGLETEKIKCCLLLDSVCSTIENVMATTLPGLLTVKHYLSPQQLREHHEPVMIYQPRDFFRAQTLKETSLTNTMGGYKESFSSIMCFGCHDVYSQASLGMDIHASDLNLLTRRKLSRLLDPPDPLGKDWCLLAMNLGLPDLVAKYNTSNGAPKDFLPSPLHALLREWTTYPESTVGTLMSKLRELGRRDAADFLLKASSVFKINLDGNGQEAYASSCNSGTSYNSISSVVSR
Chain of PAK4 (O96013 whole entry): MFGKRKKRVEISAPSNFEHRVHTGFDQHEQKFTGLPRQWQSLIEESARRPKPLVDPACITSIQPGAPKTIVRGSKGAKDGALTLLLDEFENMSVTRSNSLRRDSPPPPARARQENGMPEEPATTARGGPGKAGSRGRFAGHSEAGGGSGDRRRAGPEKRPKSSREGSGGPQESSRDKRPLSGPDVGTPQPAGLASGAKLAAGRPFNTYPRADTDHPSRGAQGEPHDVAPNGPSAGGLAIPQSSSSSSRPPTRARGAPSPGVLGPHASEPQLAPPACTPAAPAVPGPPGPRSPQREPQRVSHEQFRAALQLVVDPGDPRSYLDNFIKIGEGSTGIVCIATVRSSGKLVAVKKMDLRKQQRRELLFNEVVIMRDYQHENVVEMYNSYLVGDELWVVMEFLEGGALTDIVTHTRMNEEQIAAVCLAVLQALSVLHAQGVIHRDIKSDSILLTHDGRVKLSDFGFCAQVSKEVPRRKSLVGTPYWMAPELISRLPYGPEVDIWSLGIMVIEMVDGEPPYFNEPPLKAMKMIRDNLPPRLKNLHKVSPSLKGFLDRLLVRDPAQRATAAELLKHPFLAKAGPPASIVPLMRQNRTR

For the compound `CNc1ncc2cc(-c3ccc(-c4cccc(C)n4)cc3Cl)c(=O)n(CC3OCC(N)CO3)c2n1` (centres unmarked) [compound 2, G-5555], the “dTm G-5555 (2)” value in experiment [1] (10 µM, binder) is 0.5 °C; in [2] (10 µM, binder) it was 0.4 °C; in experiment [3] (10 µM, binder), -0.4 °C; in experiment [4] (10 µM, binder) it was 7.2 °C; in [5] (10 µM, binder), -0.7 °C; in experiment [6] (10 µM, binder) it was 4.1 °C. Further, the “dTm G-5555 (2)” value in experiment [7] (10 µM, binder) is -1.0 °C; in [8] (10 µM, binder), 3.5 °C; in experiment [9] (10 µM, binder) it was 0.2 °C; in experiment [10] (10 µM, binder), 1.3 °C; in experiment [11] (10 µM, binder), 2.3 °C.

As for `CNc1ncc2cc(-c3cc(Br)ccc3Cl)c(=O)n(C[C@H]3OC[C@H](N)CO3)c2n1` [compound 7, 8-(((2r,5r)-5-Amino-1,3-dioxan-2-yl)methyl)-6-(5-bromo-2-chlorophenyl)-2-(methylamino)pyrido[2,3-d]pyrimidin-7(8H)-one], the ΔTm at 10 µM in experiment [1] (read-out: dTm 7) is -0.4 °C; in [2] (read-out: dTm 7) it was -0.1 °C; in experiment [3] (read-out: dTm 7), 0 °C; in experiment [12] (read-out: dTm 7) it was 2.1 °C; in experiment [5] (read-out: dTm 7), 0.6 °C; in experiment [6] (read-out: dTm 7), -0.5 °C. In addition, the ΔTm at 10 µM came out at 0.1 °C in [7] (read-out: dTm 7); 0.5 °C in experiment [8] (read-out: dTm 7); 0 °C in [9] (read-out: dTm 7); 0.1 °C in [10] (read-out: dTm 7); 0.3 °C in experiment [11] (read-out: dTm 7).

In the case of `CNc1ncc2cc(-c3cc(Br)ccc3Cl)c(=O)n(CCCCN)c2n1` [compound 6, 8-(4-Aminobutyl)-6-(5-bromo-2-chlorophenyl)-2-(methylamino)pyrido[2,3-d]pyrimidin-7(8H)-one], the ΔTm at 10 µM is -0.2 °C in experiment [1] (read-out: dTm 6); 0.9 °C in experiment [2] (read-out: dTm 6); -0.3 °C in experiment [3] (read-out: dTm 6); 2 °C in experiment [12] (read-out: dTm 6); -0.1 °C in [5] (read-out: dTm 6); 2.7 °C in experiment [6] (read-out: dTm 6). Besides, the ΔTm at 10 µM in experiment [7] (read-out: dTm 6) was -0.2 °C; in [8] (read-out: dTm 6), 1.1 °C; in experiment [9] (read-out: dTm 6) it was 0.3 °C; in [10] (read-out: dTm 6) it was 1.1 °C; in [11] (read-out: dTm 6), 1.2 °C.

Take `CNc1ncc2cc(-c3ccccc3Cl)c(=O)n(CCCCN)c2n1` [compound 4, 8-(4-Aminobutyl)-6-(2-chlorophenyl)-2-(methylamino)pyrido[2,3-d]pyrimidin-7(8H)-one]: the ΔTm at 10 µM in experiment [2] (read-out: dTm MR21 (4)) came to 2.9 °C; in experiment [3] (read-out: dTm MR21 (4)), 1.6 °C; in [4] (read-out: dTm MR21 (4)) it was 1.6 °C; in experiment [12] (read-out: dTm MR21 (4)), 0.5 °C; in experiment [5] (read-out: dTm MR21 (4)) it was 0.1 °C; in experiment [6] (read-out: dTm MR21 (4)), 1.8 °C. The ΔTm at 10 µM is -0.2 °C in experiment [7] (read-out: dTm MR21 (4)); 2.8 °C in experiment [8] (read-out: dTm MR21 (4)); 1.3 °C in experiment [9] (read-out: dTm MR21 (4)); 1.8 °C in experiment [10] (read-out: dTm MR21 (4)); -0.1 °C in [11] (read-out: dTm MR21 (4)).

For `CNc1ncc2cc(-c3cc(F)ccc3F)c(=O)n(CCCCN)c2n1` [compound 5, 8-(4-Aminobutyl)-6-(2,5-difluorophenyl)-2-(methylamino)pyrido[2,3-d]pyrimidin-7(8H)-one], the ΔTm at 10 µM in [1] (read-out: dTm MR22 (5)) was 0.5 °C; in [2] (read-out: dTm MR22 (5)), 1.3 °C; in experiment [3] (read-out: dTm MR22 (5)), 0.3 °C; in experiment [4] (read-out: dTm MR22 (5)), -0.6 °C; in [12] (read-out: dTm MR22 (5)), 1 °C; in experiment [5] (read-out: dTm MR22 (5)), -0.7 °C. In addition, the ΔTm at 10 µM in [6] (read-out: dTm MR22 (5)) was -1.6 °C; in [7] (read-out: dTm MR22 (5)), -0.7 °C; in experiment [8] (read-out: dTm MR22 (5)) it was 0.2 °C; in [9] (read-out: dTm MR22 (5)), -0.8 °C; in experiment [10] (read-out: dTm MR22 (5)) it was 0.3 °C; in [11] (read-out: dTm MR22 (5)) it was -0.4 °C.
